The values below are quoted from earlier work in article PMC6151383 (Molecules : A Journal of Synthetic Chemistry and Natural …, 2017).

The data set deals with Staphylococcus aureus, including a methicillin-resistant strain (MRSA), M. tuberculosis and Mycobacterium avium. As to conditions: range over S. aureus; cited from earlier work.

As for `O=S(=O)(Nc1ncccn1)c1ccc(N=Cc2cc(Cl)ccc2O)cc1` [Compound 2c, 4-[(5-Chloro-2-hydroxybenzylidene)amino]-N-(pyrimidin-2-yl)benzenesulfonamide], the MIC values was 125 to 250 µM.
